# Results reported in US20250325711A1, “COVALENT FLUORESCENT PROBES FOR CANNABINOID RECEPTOR 2” (Hoffmann-La Roche Inc., priority 2022, published 2025).
# Target: hCB2R (Homo sapiens (Human), UniProt P34972)
# Assay: TR-FRET hCB2R Binding Assay
# Settings: not given
row,SMILES,Kd [nM]
1,"COc1cc(C(C)(C)CCCCCCN=[N+]=[N-])cc(OC)c1[C@H]1C=C(CNC(=O)CCCCCCCCNC(=O)c2ccc(=O)n(S(=O)(=O)c3cccc(C(=O)NCc4cn(CCOCCNc5ccc([N+](=O)[O-])c6nonc56)nn4)c3)c2)[C@H]2C[C@@H]1C2(C)C [Example 7, N-(9-((((1S,4S,5S)-4-(4-(8-azido-2-methyloctan-2-yl)-2,6-dimethoxyphenyl)-6,6-dimethylbicyclo[3.1.1]hept-2-en-2-yl)methyl)amino)-9-oxononyl)-1-((3-(((1-(2-(2-((7-nitrobenzo[c][1,2,5]oxadiazol-4-yl)amino)ethoxy)ethyl)-1H-1,2,3-triazol-4-yl)methyl)carbamoyl)phenyl)sulfonyl)-6-oxo-1,6-dihydropyridine-3-carboxamide]",8.9

# Same assay, conditions: SNAP-tagged human CB2R HEK293-TR cell membranes, TR-FRET (HTRF) detection, nonspecific binding with 1 μM SR144528; read-out: Kd hCB2R
row,SMILES,Kd [nM]
1,"CCN(CC)c1ccc2cc(C=Cc3ccc(S(=O)(=O)[O-])c[n+]3CCCCCC(=O)NCCOCCn3cc(CNC(=O)c4cccc(S(=O)(=O)n5cc(C(=O)NCCCCCCC(=O)NCC6=C[C@H](c7c(OC)cc(C(C)(C)CCCCCCN=[N+]=[N-])cc7OC)[C@@H]7C[C@H]6C7(C)C)ccc5=O)c4)nn3)c(=O)oc2c1 [Example 5, 1-(6-((2-(2-(4-((3-((5-((7-((((1S,4S,5S)-4-(4-(8-azido-2-methyloctan-2-yl)-2,6-dimethoxyphenyl)-6,6-dimethylbicyclo[3.1.1]hept-2-en-2-yl)methyl)amino)-7-oxoheptyl)carbamoyl)-2-oxopyridin-1 (2H)-yl)sulfonyl)benzamido)methyl)-1H-1,2,3-triazol-1-yl)ethoxy)ethyl)amino)-6-oxohexyl)-6-(2-(7-(diethylamino)-2-oxo-2H-chromen-3-yl)vinyl)pyridin-1-ium-3-sulfonate]",59
2,"COc1cc(C(C)(C)CCCCCCN=[N+]=[N-])cc(OC)c1[C@H]1C=C(CNC(=O)CCCCCCNC(=O)c2ccc(S(=O)(=O)N(CC#N)C(=O)CCc3cn(CCOCCNC(=O)c4ccc5c(c4)C4(OC5=O)c5ccc(N6CCC6)cc5[Si](C)(C)c5cc(N6CCC6)ccc54)nn3)cc2)[C@H]2C[C@@H]1C2(C)C [Example 13, 3,7-di(azetidin-1-yl)-N-(2-(2-(4-(3-((4-((7-((((1S,4S,5S)-4-(4-(8-azido-2-methyloctan-2-yl)-2,6-dimethoxyphenyl)-6,6-dimethylbicyclo[3.1.1]hept-2-en-2-yl)methyl)amino)-7-oxoheptyl)carbamoyl)-N-(cyanomethyl)phenyl)sulfonamido)-3-oxopropyl)-1H-1,2,3-triazol-1-yl)ethoxy)ethyl)-5,5-dimethyl-3′-oxo-3′H,5H-spiro[dibenzo[b,e]siline-10,1′-isobenzofuran]-6′-carboxamide]",124
3,"CCN(CC)c1ccc2cc(C=Cc3ccc(S(=O)(=O)[O-])c[n+]3CCCCCC(=O)NCCOCCn3cc(CCC(=O)N(CC#N)S(=O)(=O)c4ccc(C(=O)NCCCCCCC(=O)NCC5=C[C@H](c6c(OC)cc(C(C)(C)CCCCCCN=[N+]=[N-])cc6OC)[C@@H]6C[C@H]5C6(C)C)cc4)nn3)c(=O)oc2c1 [Example 12, 1-(6-((2-(2-(4-(3-((4-((7-((((1S,4S,5S)-4-(4-(8-azido-2-methyloctan-2-yl)-2,6-dimethoxyphenyl)-6,6-dimethylbicyclo[3.1.1]hept-2-en-2-yl)methyl)amino)-7-oxoheptyl)carbamoyl)-N-(cyanomethyl)phenyl)sulfonamido)-3-oxopropyl)-1H-1,2,3-triazol-1-yl)ethoxy)ethyl)amino)-6-oxohexyl)-6-(2-(7-(diethylamino)-2-oxo-2H-chromen-3-yl)vinyl)pyridin-1-ium-3-sulfonate]",25
4,"COc1cc(C(C)(C)CCCCCCN=[N+]=[N-])cc(OC)c1[C@H]1C=C(CNC(=O)CCCCCCNC(=O)c2ccc(S(=O)(=O)N(Cc3ccccn3)C(=O)CCCCCNc3ccc([N+](=O)[O-])c4nonc34)cc2)[C@H]2C[C@@H]1C2(C)C [Example 8, N-(7-((((1S,4S,5S)-4-(4-(8-azido-2-methyloctan-2-yl)-2,6-dimethoxyphenyl)-6,6-dimethylbicyclo[3.1.1]hept-2-en-2-yl)methyl)amino)-7-oxoheptyl)-4-(N-(6-((7-nitrobenzo[c][1,2,5]oxadiazol-4-yl)amino)hexanoyl)-N-(pyridin-2-ylmethyl)sulfamoyl)benzamide]",12
5,"COc1cc(C(C)(C)CCCCCCN=[N+]=[N-])cc(OC)c1[C@H]1C=C(CNC(=O)CCCCCCNC(=O)c2ccc(S(=O)(=O)N(CC#N)C(=O)CCCCCNc3ccc([N+](=O)[O-])c4nonc34)cc2)[C@H]2C[C@@H]1C2(C)C [Example 10, N-(7-((((1S,4S,5S)-4-(4-(8-azido-2-methyloctan-2-yl)-2,6-dimethoxyphenyl)-6,6-dimethylbicyclo[3.1.1]hept-2-en-2-yl)methyl)amino)-7-oxoheptyl)-4-(N-(cyanomethyl)-N-(6-((7-nitrobenzo[c][1,2,5]oxadiazol-4-yl)amino)hexanoyl)sulfamoyl)benzamide]",3.9
6,"COc1cc(C(C)(C)CCCCCCN=[N+]=[N-])cc(OC)c1[C@H]1C=C(CNC(=O)CCCCCCOc2c(F)c(F)c3c(c2F)C2(OC3=O)c3ccc(N4CCC4)cc3[Si](C)(C)c3cc(N4CCC4)ccc32)[C@H]2C[C@@H]1C2(C)C [Example 19, N-(((1S,4S,5S)-4-(4-(8-azido-2-methyloctan-2-yl)-2,6-dimethoxyphenyl)-6,6-dimethylbicyclo[3.1.1]hept-2-en-2-yl)methyl)-7-((3,7-di(azetidin-1-yl)-4′,5′,7′-trifluoro-5,5-dimethyl-3′-oxo-3′H,5H-spiro[dibenzo[b,e]siline-10,1′-isobenzofuran]-6′-yl)oxy)heptanamide]",2
7,"CCCCCCC(C)(C)c1cc(OC)c([C@H]2C=C(CNC(=O)CCCCCCNC(=O)c3ccc(S(=O)(=O)N(Cc4ccccn4)C(=O)CCCCCNc4ccc([N+](=O)[O-])c5nonc45)cc3)[C@H]3C[C@@H]2C3(C)C)c(OC)c1 [Example 9, N-(7-((((1S,4S,5S)-4-(2,6-dimethoxy-4-(2-methyloctan-2-yl)phenyl)-6,6-dimethylbicyclo[3.1.1]hept-2-en-2-yl)methyl)amino)-7-oxoheptyl)-4-(N-(6-((7-nitrobenzo[c][1,2,5]oxadiazol-4-yl)amino)hexanoyl)-N-(pyridin-2-ylmethyl)sulfamoyl)benzamide]",35.5
8,"COc1cc(C(C)(C)CCCCCCN=[N+]=[N-])cc(OC)c1[C@H]1C=C(CNC(=O)CCCCCCNC(=O)c2ccc(S(=O)(=O)N(CC#N)C(=O)CCc3cn(CCOCCNc4ccc([N+](=O)[O-])c5nonc45)nn3)cc2)[C@H]2C[C@@H]1C2(C)C [Example 11, N-(7-((((1S,4S,5S)-4-(4-(8-azido-2-methyloctan-2-yl)-2,6-dimethoxyphenyl)-6,6-dimethylbicyclo[3.1.1]hept-2-en-2-yl)methyl)amino)-7-oxoheptyl)-4-(N-(cyanomethyl)-N-(3-(1-(2-(2-((7-nitrobenzo[c][1,2,5]oxadiazol-4-yl)amino)ethoxy)ethyl)-1H-1,2,3-triazol-4-yl)propanoyl)sulfamoyl)benzamide]",152
9,"C#CCCC(=O)N(CC#N)S(=O)(=O)c1ccc(C(=O)NCCCCCCC(=O)NCC2=C[C@H](c3c(OC)cc(C(C)(C)CCCCCCN=[N+]=[N-])cc3OC)[C@@H]3C[C@H]2C3(C)C)cc1 [Example 14, N-(7-((((1S,4S,5S)-4-(4-(8-azido-2-methyloctan-2-yl)-2,6-dimethoxyphenyl)-6,6-dimethylbicyclo[3.1.1]hept-2-en-2-yl)methyl)amino)-7-oxoheptyl)-4-(N-(cyanomethyl)-N-(pent-4-ynoyl)sulfamoyl)benzamide]",1.5
10,"CCCCCCC(C)(C)c1cc(OC)c([C@H]2C=C(CNC(=O)CCCCCCNC(=O)c3ccc(=O)n(S(=O)(=O)c4cccc(C(=O)NCc5cn(CCOCCNc6ccc([N+](=O)[O-])c7nonc67)nn5)c4)c3)[C@H]3C[C@@H]2C3(C)C)c(OC)c1 [Example 3, N-(7-((((1S,4S,5S)-4-(2,6-dimethoxy-4-(2-methyloctan-2-yl)phenyl)-6,6-dimethylbicyclo[3.1.1]hept-2-en-2-yl)methyl)amino)-7-oxoheptyl)-1-((3-(((1-(2-(2-((7-nitrobenzo[c][1,2,5]oxadiazol-4-yl)amino)ethoxy)ethyl)-1H-1,2,3-triazol-4-yl)methyl)carbamoyl)phenyl)sulfonyl)-6-oxo-1,6-dihydropyridine-3-carboxamide]",24.2
11,"COc1cc(C(C)(C)CCCCCCN=[N+]=[N-])cc(OC)c1[C@H]1C=C(CNC(=O)CCCCCCNC(=O)c2ccc(=O)n(S(=O)(=O)c3cccc(C(=O)NCc4cn(CCOCCNc5ccc([N+](=O)[O-])c6nonc56)nn4)c3)c2)[C@H]2C[C@@H]1C2(C)C [Example 2, N-(7-((((1S,4S,5S)-4-(4-(8-azido-2-methyloctan-2-yl)-2,6-dimethoxyphenyl)-6,6-dimethylbicyclo[3.1.1]hept-2-en-2-yl)methyl)amino)-7-oxoheptyl)-1-((3-(((1-(2-(2-((7-nitrobenzo[c][1,2,5]oxadiazol-4-yl)amino)ethoxy)ethyl)-1H-1,2,3-triazol-4-yl)methyl)carbamoyl)phenyl)sulfonyl)-6-oxo-1,6-dihydropyridine-3-carboxamide]",22.9
12,"COc1cc(C(C)(C)CCCCCCN=[N+]=[N-])cc(OC)c1[C@H]1C=C(CNC(=O)CCCCNC(=O)c2ccc(=O)n(S(=O)(=O)c3cccc(C(=O)NCCc4cn(CCOCCNc5ccc([N+](=O)[O-])c6nonc56)nn4)c3)c2)[C@H]2C[C@@H]1C2(C)C [Example 1, N-(5-((((1S,4S,5S)-4-(4-(8-azido-2-methyloctan-2-yl)-2,6-dimethoxyphenyl)-6,6-dimethylbicyclo[3.1.1]hept-2-en-2-yl)methyl)amino)-5-oxopentyl)-1-((3-((2-(1-(2-(2-((7-nitrobenzo[c][1,2,5]oxadiazol-4-yl)amino)ethoxy)ethyl)-1H-1,2,3-triazol-4-yl)ethyl)carbamoyl)phenyl)sulfonyl)-6-oxo-1,6-dihydropyridine-3-carboxamide]",9.1
